Test results taken from the supplement of paper PMC11061612.

Key:
Experiment in all cases: Bliss excess, mean over the matrix (fraction); higher = more synergy
[1] = tested on: HMV-II (Melanoma)
Summary of the method: (§1)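 Bliss excess equals the observed combination effect minus the expected value EA + EB − EA·EB, where EA and EB are the effects of each agent alone. Combination Emax is the second-highest inhibition within the matrix. Inhibition was scaled from CellTiter-Glo 2.0 luminescence, with 0 set by vehicle wells and 1 by blank wells, after 72 hours of two-drug dosing of cells plated in 1536-well plates.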

[2] = tested on: EN (Endometrial Carcinoma)
Summary of the method: as §1

[3] = tested on: LoVo (Colorectal Carcinoma)
Summary of the method: as §1

[4] = tested on: 639-V (Bladder Carcinoma)
Summary of the method: as §1

[5] = tested on: NCI-H2795 (Mesothelioma)
Summary of the method: as §1

[6] = tested on: RPMI-6666 (Non-Cancerous)
Summary of the method: as §1

[7] = tested on: PCI-30 (Head and Neck Carcinoma)
Summary of the method: as §1

[8] = tested on: HO-1-u-1 (Oral Cavity Carcinoma)
Summary of the method: as §1

[9] = tested on: CTB-1 (B-Cell Non-Hodgkin's Lymphoma)
Summary of the method: as §1

[10] = tested on: NCI-H28 (Mesothelioma)
Summary of the method: as §1

[11] = tested on: SW1271 (Small Cell Lung Carcinoma)
Summary of the method: as §1

[12] = tested on: SH-4 (Melanoma)
Summary of the method: as §1

[13] = tested on: Mewo (Melanoma)
Summary of the method: as §1

[14] = tested on: SK-OV-3 (Ovarian Carcinoma)
Summary of the method: as §1

[15] = tested on: HARA (Squamous Cell Lung Carcinoma)
Summary of the method: as §1

[16] = tested on: OVCAR-8 (Ovarian Carcinoma)
Summary of the method: as §1

[17] = tested on: NB14 (Neuroblastoma)
Summary of the method: as §1

[18] = tested on: K5 (Thyroid Gland Carcinoma)
Summary of the method: as §1

[19] = tested on: NCI-H2461 (Mesothelioma)
Summary of the method: as §1

[20] = tested on: NCI-H69 (Small Cell Lung Carcinoma)
Summary of the method: as §1

Structure (SMILES): CN(C)CCCOc1ccc(-c2ccc3ncc4c(c3c2)n(C2CCOCC2)c(=O)n4C)cn1 [AZD0156] + C=CCn1c(=O)c2cnc(Nc3ccc(N4CCN(C)CC4)cc3)nc2n1-c1cccc(C(C)(C)O)n1 [AZD1775] (first compound max 1 µM, partner max 1 µM)
- Bliss excess [1]: -0.0182
- Bliss excess [2]: -0.0767
- Bliss excess [3]: -0.0533
- Bliss excess [4]: -0.0232
- Bliss excess [5]: -0.0131
- Bliss excess [6]: -0.009
- Bliss excess [7]: -0.0356
- Bliss excess [8]: 0.0563
- Bliss excess [9]: 0.0101
- Bliss excess [10]: -0.0066
- Bliss excess [11]: -0.0895
- Bliss excess [12]: -0.0219
- Bliss excess [13]: -0.05
- Bliss excess [14]: -0.0433
- Bliss excess [15]: -0.007
- Bliss excess [16]: -0.0053
- Bliss excess [17]: -0.0198
- Bliss excess [18]: -0.0003
- Bliss excess [19]: -0.0451
- Bliss excess [20]: -0.129

Structure (SMILES): Cc1cc2ncnn2cc1Nc1ncc2c(n1)n(C1CCOCC1)c(=O)n2C [AZD7648] + C=CCn1c(=O)c2cnc(Nc3ccc(N4CCN(C)CC4)cc3)nc2n1-c1cccc(C(C)(C)O)n1 [AZD1775] (first compound max 10 µM, partner max 1 µM)
- Bliss excess [1]: -0.0714
- Bliss excess [2]: -0.0608
- Bliss excess [3]: -0.0658
- Bliss excess [4]: 0.049
- Bliss excess [5]: 0.056
- Bliss excess [6]: -0.0687
- Bliss excess [7]: 0.0419
- Bliss excess [8]: 0.0946
- Bliss excess [9]: -0.0542
- Bliss excess [10]: 0.0291
- Bliss excess [11]: -0.0199
- Bliss excess [12]: 0.0332
- Bliss excess [13]: 0.0455
- Bliss excess [14]: -0.0663
- Bliss excess [15]: -0.0542
- Bliss excess [16]: 0.0102
- Bliss excess [17]: 0.0014
- Bliss excess [18]: 0.0433
- Bliss excess [19]: -0.0524
- Bliss excess [20]: -0.118

Structure (SMILES): CC1(C)CCC(CN2CCN(c3ccc(C(=O)NS(=O)(=O)c4ccc(NCC5CCOCC5)c([N+](=O)[O-])c4)c(Oc4cnc5[nH]ccc5c4)c3)CC2)=C(c2ccc(Cl)cc2)C1 [Venetoclax] + C1CN(CCC1(C(=O)N[C@@H](CCO)C2=CC=C(C=C2)Cl)N)C3=NC=NC4=C3C=CN4 [Capivasertib] (first compound max 1 µM, 7x7, partner max 3 µM)
- Bliss excess [1]: -0.0444
- Bliss excess [2]: -0.0656
- Bliss excess [3]: -0.0419
- Bliss excess [4]: -0.108
- Bliss excess [5]: -0.111
- Bliss excess [6]: 0.0217
- Bliss excess [7]: -0.0216
- Bliss excess [8]: -0.052
- Bliss excess [9]: -0.045
- Bliss excess [10]: -0.0848
- Bliss excess [11]: -0.105
- Bliss excess [12]: -0.0592
- Bliss excess [13]: -0.0093
- Bliss excess [14]: -0.0577
- Bliss excess [15]: -0.009
- Bliss excess [16]: -0.0504
- Bliss excess [17]: -0.0461
- Bliss excess [18]: -0.0618
- Bliss excess [19]: -0.0184
- Bliss excess [20]: 0.0185

Structure (SMILES): CC1(C)CCC(CN2CCN(c3ccc(C(=O)NS(=O)(=O)c4ccc(NCC5CCOCC5)c([N+](=O)[O-])c4)c(Oc4cnc5[nH]ccc5c4)c3)CC2)=C(c2ccc(Cl)cc2)C1 [Venetoclax] + COc1cc(Nc2ncc3c(n2)-c2ccc(Cl)cc2C(c2c(F)cccc2OC)=NC3)ccc1C(=O)O [Alisertib] (first compound max 1 µM, 7x7, partner max 10 µM)
- Bliss excess [1]: -0.0414
- Bliss excess [2]: -0.0554
- Bliss excess [3]: -0.0799
- Bliss excess [4]: 0.0173
- Bliss excess [5]: -0.0656
- Bliss excess [6]: 0.0702
- Bliss excess [7]: -0.0352
- Bliss excess [8]: 0.0246
- Bliss excess [9]: -0.0467
- Bliss excess [10]: -0.0704
- Bliss excess [11]: -0.0222
- Bliss excess [12]: -0.0234
- Bliss excess [13]: -0.0163
- Bliss excess [14]: -0.076
- Bliss excess [15]: 0.018
- Bliss excess [16]: 0.0079
- Bliss excess [17]: 0.0448
- Bliss excess [18]: -0.0455
- Bliss excess [19]: -0.0208
- Bliss excess [20]: 0.146

Structure (SMILES): Cc1c2c(nn1C)CSCc1cc(n(C)n1)CSc1cc(c3ccccc3c1)OCCCc1c(C(=O)O)n(C)c3c-2c(Cl)ccc13 [AZD5991] + CC1(C)CCC(CN2CCN(c3ccc(C(=O)NS(=O)(=O)c4ccc(NCC5CCOCC5)c([N+](=O)[O-])c4)c(Oc4cnc5[nH]ccc5c4)c3)CC2)=C(c2ccc(Cl)cc2)C1 [Venetoclax] (first compound max 1 µM, 7x7, partner max 1 µM)
- Bliss excess [1]: -0.0257
- Bliss excess [2]: -0.0236
- Bliss excess [3]: -0.0217
- Bliss excess [4]: 0.0009
- Bliss excess [5]: -0.0423
- Bliss excess [6]: 0.233
- Bliss excess [7]: -0.0376
- Bliss excess [8]: -0.0046
- Bliss excess [9]: -0.0491
- Bliss excess [10]: -0.0812
- Bliss excess [11]: -0.0504
- Bliss excess [12]: 0.0457
- Bliss excess [13]: 0.0377
- Bliss excess [14]: -0.0153
- Bliss excess [15]: -0.0091
- Bliss excess [16]: -0.0157
- Bliss excess [17]: 0.255
- Bliss excess [18]: -0.0325
- Bliss excess [19]: -0.0237
- Bliss excess [20]: -0.0383

Structure (SMILES): CN(CCO)CC[C@H](CSc1ccccc1)Nc1ccc(S(=O)(=O)NC(=O)c2ccc(N3CCC([C@@H](O)c4ccccc4-c4ccc(Cl)cc4)CC3)cc2)cc1S(=O)(=O)C(F)(F)F [AZD4320] + CCN(CCO)CCCOc1ccc2c(Nc3cc(CC(=O)Nc4cccc(F)c4)[nH]n3)ncnc2c1 [AZD2811] (first compound max 1 µM, 7x7, partner max 1 µM)
- Bliss excess [1]: -0.0357
- Bliss excess [2]: -0.0073
- Bliss excess [3]: -0.0278
- Bliss excess [4]: 0.0502
- Bliss excess [5]: 0.0386
- Bliss excess [6]: 0.17
- Bliss excess [7]: -0.0085
- Bliss excess [8]: 0.107
- Bliss excess [9]: -0.0596
- Bliss excess [10]: -0.0045
- Bliss excess [11]: -0.0428
- Bliss excess [12]: -0.0236
- Bliss excess [13]: 0.0053
- Bliss excess [14]: -0.0522
- Bliss excess [15]: 0.106
- Bliss excess [16]: 0.028
- Bliss excess [17]: 0
- Bliss excess [18]: -0.0283
- Bliss excess [19]: -0.0195
- Bliss excess [20]: 0.035

Structure (SMILES): Cc1c2c(nn1C)CSCc1cc(n(C)n1)CSc1cc(c3ccccc3c1)OCCCc1c(C(=O)O)n(C)c3c-2c(Cl)ccc13 [AZD5991] + C[C@@H]1COCCN1C2=NC(=NC(=C2)C3(CC3)[S@](=N)(=O)C)C4=C5C=CNC5=NC=C4 [AZD6738] (first compound max 1 µM, 7x7, partner max 10 µM)
- Bliss excess [1]: -0.0496
- Bliss excess [2]: -0.0039
- Bliss excess [3]: -0.033
- Bliss excess [4]: 0.0431
- Bliss excess [5]: 0.0835
- Bliss excess [6]: 0.0272
- Bliss excess [7]: 0.0378
- Bliss excess [8]: -0.0074
- Bliss excess [9]: -0.0314
- Bliss excess [10]: 0.0026
- Bliss excess [11]: 0.0121
- Bliss excess [12]: 0.0323
- Bliss excess [13]: -0.0329
- Bliss excess [14]: 0.0538
- Bliss excess [15]: -0.0283
- Bliss excess [16]: 0.001
- Bliss excess [17]: -0.0038
- Bliss excess [18]: 0.0076
- Bliss excess [19]: 0.0016
- Bliss excess [20]: -0.0477
